Experiment [1] is described as follows: DRUGMATRIX: Calcium Channel Type L, Benzothiazepine radioligand binding (ligand: [3H] Diltiazem). The conditions noted are these: Not Active = under 50% inhibition at 10 µM. The experiment is classed as cell membranes, Rattus norvegicus, Wistar, Brain, Membrane.
Experiment [2] addresses T1, Muscarinic acetylcholine receptor M4 (Homo sapiens, UniProt P08173).
T1 sequence (P08173 whole entry): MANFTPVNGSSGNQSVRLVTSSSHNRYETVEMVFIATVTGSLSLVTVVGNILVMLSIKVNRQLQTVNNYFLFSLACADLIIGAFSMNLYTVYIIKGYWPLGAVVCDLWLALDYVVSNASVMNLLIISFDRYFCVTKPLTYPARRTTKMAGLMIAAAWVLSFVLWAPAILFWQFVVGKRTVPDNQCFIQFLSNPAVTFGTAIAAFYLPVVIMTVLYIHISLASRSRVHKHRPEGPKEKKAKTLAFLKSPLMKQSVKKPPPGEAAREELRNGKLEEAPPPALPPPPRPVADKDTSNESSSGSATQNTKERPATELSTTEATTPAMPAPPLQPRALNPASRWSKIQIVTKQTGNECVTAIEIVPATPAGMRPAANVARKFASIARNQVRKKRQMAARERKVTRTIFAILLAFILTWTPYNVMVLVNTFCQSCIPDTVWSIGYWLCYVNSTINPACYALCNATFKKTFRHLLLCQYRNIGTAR
The experiment is classed as cell membranes, CHO-K1, Membrane. The conditions noted are these: cho-k1.

The target of experiment [3] is T2, Receptor-type tyrosine-protein phosphatase C (Homo sapiens, UniProt P08575).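 Note: inhibition of CD45 enzyme activity measured using DiFMUP as substrate; in other assays of this panel Not Active means under 50% inhibition at 10 µM.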
T2 sequence (P08575 whole entry): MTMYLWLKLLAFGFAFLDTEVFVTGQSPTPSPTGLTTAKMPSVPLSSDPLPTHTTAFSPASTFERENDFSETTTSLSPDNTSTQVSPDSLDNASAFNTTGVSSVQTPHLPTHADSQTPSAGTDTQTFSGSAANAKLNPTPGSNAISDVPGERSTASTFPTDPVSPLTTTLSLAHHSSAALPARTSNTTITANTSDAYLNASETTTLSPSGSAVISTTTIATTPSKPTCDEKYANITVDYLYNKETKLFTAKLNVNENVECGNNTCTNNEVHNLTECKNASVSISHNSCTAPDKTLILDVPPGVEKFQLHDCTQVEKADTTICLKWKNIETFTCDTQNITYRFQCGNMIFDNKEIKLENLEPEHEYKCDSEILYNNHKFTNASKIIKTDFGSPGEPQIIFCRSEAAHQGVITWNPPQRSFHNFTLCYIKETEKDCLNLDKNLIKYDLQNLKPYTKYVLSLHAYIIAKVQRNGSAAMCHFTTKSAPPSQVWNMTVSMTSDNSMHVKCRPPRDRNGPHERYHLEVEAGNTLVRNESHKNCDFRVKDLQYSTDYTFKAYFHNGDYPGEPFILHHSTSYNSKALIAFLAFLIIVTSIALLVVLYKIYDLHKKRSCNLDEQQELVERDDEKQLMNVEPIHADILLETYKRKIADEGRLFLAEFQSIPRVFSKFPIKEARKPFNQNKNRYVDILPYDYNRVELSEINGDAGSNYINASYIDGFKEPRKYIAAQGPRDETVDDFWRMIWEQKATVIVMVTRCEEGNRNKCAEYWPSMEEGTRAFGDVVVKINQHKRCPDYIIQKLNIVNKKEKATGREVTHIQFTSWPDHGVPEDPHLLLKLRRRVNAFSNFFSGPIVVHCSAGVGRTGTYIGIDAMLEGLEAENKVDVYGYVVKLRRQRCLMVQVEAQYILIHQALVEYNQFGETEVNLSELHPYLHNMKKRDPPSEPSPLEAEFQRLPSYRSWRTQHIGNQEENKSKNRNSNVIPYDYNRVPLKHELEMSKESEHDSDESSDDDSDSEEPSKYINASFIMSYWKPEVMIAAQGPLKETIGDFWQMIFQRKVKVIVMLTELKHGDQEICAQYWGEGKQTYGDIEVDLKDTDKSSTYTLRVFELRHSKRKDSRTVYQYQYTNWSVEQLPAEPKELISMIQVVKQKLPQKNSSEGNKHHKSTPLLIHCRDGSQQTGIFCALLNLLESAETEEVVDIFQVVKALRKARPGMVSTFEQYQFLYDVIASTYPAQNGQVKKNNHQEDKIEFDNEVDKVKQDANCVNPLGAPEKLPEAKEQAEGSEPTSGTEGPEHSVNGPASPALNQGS
Details: species or system Escherichia coli.

Experiment [4] deals with T3, Adenosine receptor A1 (Homo sapiens, UniProt P30542).
T3 sequence (P30542 whole entry): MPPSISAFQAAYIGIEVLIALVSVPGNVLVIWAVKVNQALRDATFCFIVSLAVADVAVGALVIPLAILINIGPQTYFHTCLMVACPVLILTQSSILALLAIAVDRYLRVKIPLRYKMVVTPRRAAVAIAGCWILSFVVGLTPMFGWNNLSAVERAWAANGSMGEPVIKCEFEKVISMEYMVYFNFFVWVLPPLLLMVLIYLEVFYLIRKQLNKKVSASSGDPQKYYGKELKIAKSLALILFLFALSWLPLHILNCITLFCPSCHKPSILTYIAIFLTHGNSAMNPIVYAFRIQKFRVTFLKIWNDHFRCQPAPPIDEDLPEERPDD
The experiment is classed as cell membranes, CHO, Membrane. The conditions noted are these: cho.

On to `C[C@]12CC[C@H]3[C@@H](CCC4=CC(=O)CC[C@@]43C)[C@@H]1CC[C@@H]2O` [TESTOSTERONE], for which the IC50 result in experiment [1], in experiment [2], in experiment [3] and in experiment [4] was “Not Active” in each case. For the same compound, in experiment [1], the Ki – broadly, a measure of affinity in units of concentration, obtained from inhibition or displacement – is listed as “Not Active”.

Consider `CC(C)(C)NC[C@H](O)COc1nsnc1N1CCOCC1` [TIMOLOL], for which the IC50 entry in experiment [1], in experiment [2], in experiment [3] and in experiment [4] was “Not Active” throughout. For the same compound, the inhibition constant Ki entry in experiment [1] was “Not Active”.

Take `CCS(=O)(=O)CCn1c([N+](=O)[O-])cnc1C` [TINIDAZOLE]: the IC50 entry in experiment [1], in experiment [2], in experiment [3] and in experiment [4] was “Not Active” each time. Also, the inhibition constant (Ki) result in experiment [1] was “Not Active”.

Consider `C[C@@H]1C[C@H]2[C@@H]3CCC4=CC(=O)C=C[C@]4(C)C3=CC[C@]2(C)[C@H]1C(=O)CN1CCN(c2cc(N3CCCC3)nc(N3CCCC3)n2)CC1` [TIRILAZAD], for which the IC50 (in general, the concentration that gives 50% inhibition) in experiment [1] (read-out: IC50) was 2690 nM; in experiment [2], “Not Active”; in experiment [3] it was “Not Active”; in experiment [4], “Not Active”. The inhibition constant Ki in experiment [1] (read-out: Ki) came to 2400 nM.

In the case of `NC[C@H]1O[C@H](O[C@H]2[C@H](O)[C@@H](O[C@H]3O[C@H](CO)[C@@H](O)[C@H](N)[C@H]3O)[C@H](N)C[C@@H]2N)[C@H](N)C[C@@H]1O` [TOBRAMYCIN], the IC50 result in experiment [1], in experiment [2], in experiment [3] and in experiment [4] was “Not Active” each time. Also, the Ki entry in experiment [1] is listed as “Not Active”.

`O=C(O)C(Cl)(Cl)Cl` [TRICHLOROACETIC ACID]: the IC50 entry in experiment [1], in experiment [2], in experiment [3] and in experiment [4] was “Not Active” throughout. Besides, the Ki entry in experiment [1] was “Not Active”.

With `COc1ccc(CN2CCNCC2)c(OC)c1OC` [TRIMETAZIDINE], the half-inhibitory concentration (IC50) entry in experiment [1], in experiment [2], in experiment [3] and in experiment [4] was “Not Active” in each case. Also, the inhibition constant Ki entry in experiment [1] is “Not Active”.

`CC(=O)O[C@H]1C[C@@H]2CC[C@@H]3[C@H](CC[C@@]4(C)[C@H]3C[C@H]([N+]3(C)CCCCC3)[C@@H]4OC(C)=O)[C@@]2(C)C[C@@H]1N1CCCCC1.[Br-]` [VECURONIUM BROMIDE]: the IC50 entry in experiment [1], in experiment [2], in experiment [3] and in experiment [4] was “Not Active” throughout. Further, the Ki entry in experiment [1] is “Not Active”.

As for `COc1cc(C(=O)NS(=O)(=O)c2ccccc2C)ccc1Cc1cn(C)c2ccc(NC(=O)OC3CCCC3)cc12` [ZAFIRLUKAST], the IC50 entry in experiment [1], in experiment [2], in experiment [3] and in experiment [4] was “Not Active” each time. Besides, the Ki entry in experiment [1] is reported as “Not Active”.

Consider `Cc1cn([C@H]2C[C@H](N=[N+]=[N-])[C@@H](CO)O2)c(=O)[nH]c1=O` [ZIDOVUDINE], for which the IC50 result in experiment [1], in experiment [2], in experiment [3] and in experiment [4] was “Not Active” throughout. The inhibitory constant (Ki) result in experiment [1] was “Not Active”.

With STANNOUS FLUORIDE, the half-inhibitory concentration (IC50) result in experiment [1], in experiment [2], in experiment [3] and in experiment [4] was “Not Active” each time. Besides, the Ki result in experiment [1], in experiment [2], in experiment [3] and in experiment [4] was “Not Active” in each case.

On to THIMEROSAL, for which the concentration for half-maximal inhibition (IC50) result in experiment [1], in experiment [2], in experiment [3] and in experiment [4] was “Not Active” in each case. In addition, the inhibitory constant (Ki) result in experiment [1], in experiment [2], in experiment [3] and in experiment [4] was “Not Active” throughout.

These data come from ChEMBL document CHEMBL1909046, “DrugMatrix in vitro pharmacology data”.
